Data from ChEMBL document CHEMBL5036306 (J Med Chem, 2021).
Active and inactive are the calls of the source. The calls are words filed in the database; no cut-off is given here.

Experiments:
Histone deacetylase 3 [1] = target: T1, Histone deacetylase 3 (Homo sapiens, UniProt O15379); assay: Inhibition of recombinant HDAC3 (unknown origin) using Boc-Lys(acetyl)-AMC as substrate preincubated for 1 hr followed by substrate addition and measured after 2 hrs by fluorescence based assay
[2] = target: T2, Protein deacetylase HDAC6 (Homo sapiens, UniProt Q9UBN7); assay: Inhibition of recombinant HDAC6 (unknown origin) using Boc-Lys(acetyl)-AMC as substrate preincubated for 1 hr followed by substrate addition and measured after 2 hrs by fluorescence based assay
T2 sequence (Q9UBN7 whole entry): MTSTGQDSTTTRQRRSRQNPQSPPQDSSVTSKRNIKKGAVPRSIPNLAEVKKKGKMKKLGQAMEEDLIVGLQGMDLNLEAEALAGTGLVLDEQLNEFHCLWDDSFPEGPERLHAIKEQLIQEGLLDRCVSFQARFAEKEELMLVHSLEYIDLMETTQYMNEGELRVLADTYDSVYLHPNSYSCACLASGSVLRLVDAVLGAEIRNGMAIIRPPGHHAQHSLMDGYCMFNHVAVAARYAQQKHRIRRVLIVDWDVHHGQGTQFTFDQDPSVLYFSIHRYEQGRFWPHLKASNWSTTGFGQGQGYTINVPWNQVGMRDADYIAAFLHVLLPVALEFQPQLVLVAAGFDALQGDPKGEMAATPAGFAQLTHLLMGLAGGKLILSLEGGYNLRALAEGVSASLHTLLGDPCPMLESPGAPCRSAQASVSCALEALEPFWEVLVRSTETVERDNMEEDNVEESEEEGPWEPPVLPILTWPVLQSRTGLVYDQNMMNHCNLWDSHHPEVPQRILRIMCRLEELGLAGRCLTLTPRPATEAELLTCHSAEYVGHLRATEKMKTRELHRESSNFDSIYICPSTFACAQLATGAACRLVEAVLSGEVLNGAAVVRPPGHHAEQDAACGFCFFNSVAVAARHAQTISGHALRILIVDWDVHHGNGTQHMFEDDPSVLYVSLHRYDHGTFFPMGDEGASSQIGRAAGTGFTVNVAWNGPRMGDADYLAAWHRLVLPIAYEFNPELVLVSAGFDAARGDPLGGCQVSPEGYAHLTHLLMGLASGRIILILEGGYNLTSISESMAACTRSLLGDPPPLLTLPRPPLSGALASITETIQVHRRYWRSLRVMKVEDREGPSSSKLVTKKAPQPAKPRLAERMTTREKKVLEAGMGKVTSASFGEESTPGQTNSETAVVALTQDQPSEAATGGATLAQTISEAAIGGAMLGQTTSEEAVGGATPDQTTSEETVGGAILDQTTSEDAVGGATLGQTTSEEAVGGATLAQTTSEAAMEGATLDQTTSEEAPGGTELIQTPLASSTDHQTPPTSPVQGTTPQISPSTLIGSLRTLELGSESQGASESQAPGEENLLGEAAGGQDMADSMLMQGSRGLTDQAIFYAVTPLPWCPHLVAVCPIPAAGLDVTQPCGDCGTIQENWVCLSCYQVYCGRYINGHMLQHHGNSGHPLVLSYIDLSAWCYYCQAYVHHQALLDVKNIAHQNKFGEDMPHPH

Homo sapiens = species on record: Homo sapiens; assay: Selectivity ratio of IC50 for recombinant HDAC3 (unknown origin) to IC50 for recombinant HDAC6 (unknown origin)
[3] = Antioxidant activity assessed as DPPH radical scavenging activity incubated for 30 mins under dark condition by microplate reader based assay; type: functional
[4] = Antioxidant activity of compound assessed as trolox equivalent of AAPH radical scavenging activity at 2 to 4 uM preincubated for 15 mins followed by AAPH addition and measured every 2 mins for 90 mins by ORAC-fluorescein assay; type: functional; settings: dose 2-4 µM, time 105.0 min
Histone deacetylase 3 [5] = target: T1, Histone deacetylase 3; assay: Inhibition of recombinant HDAC3 (unknown origin) at 1 uM using Boc-Lys(Ac)-AMC as substrate preincubated for 1 hr followed by substrate addition and measured after 2 hrs by fluorescence based assay relative to control; settings: time 3.0 hrs
[6] = target: T3, Protein deacetylase HDAC6 (Homo sapiens) (UniProt Q9UBN7); assay: Inhibition of recombinant HDAC6 (unknown origin) at 1 uM using Boc-Lys(Ac)-AMC as substrate preincubated for 1 hr followed by substrate addition and measured after 2 hrs by fluorescence based assay; settings: time 3.0 hrs
T3 sequence (whole entry): T2 sequence (Q9UBN7 whole entry)

[7] = Neurotoxicity in mouse HT-22 cells assessed as cell survival at 10 uM incubated for 48 hrs by MTT assay; type: cell-based; settings: for viability at 48 h, 10 µM: HT-22 cells, read-out: Activity
HT-22 [8] = assay: Neuroprotection against glutamate-induced oxytosis in mouse HT-22 cells assessed as cell viability at 50 uM; type: functional, cell-based
HT-22 [9] = assay: Neuroprotection against iodoacetic acid-induced ATP depletion in mouse HT-22 cells assessed as cell viability at 50 uM; type: functional, cell-based
Mus musculus [10] = assay: (§1) Anti-alzheimer activity against amyloid beta (25 to 35) induced working memory deficit mouse assessed as increase in spontaneous alternation performance by measuring total number of arm entries at 0.16 mg/kg, ip administered for 7 days and measured on day 8 by Y-maze test; type: functional, organism-based; settings: time 8.0 day
Mus musculus [11] = assay: Anti-alzheimer activity against amyloid beta (25 to 35) induced working memory deficit mouse assessed as step-through latency time to enter dark compartment at 1 mg/kg, ip administered for 7 days and measured on day 9 days by passive avoidance test; type: functional, organism-based; settings: time 9.0 day
[12] = Metal chelating activity assessed as compound-Cu2+ complex formation at 10 to 200 uM incubated for 2 mins followed by pyrocatechol violet addition and further incubated for 10 mins by microplate reader based assay; settings: dose 10-200 µM, time 12.0 min
[13] = Metal chelating activity compound-Zn2+ complex formation at 10 to 200 uM preincubated for 2 mins followed by di-thizone addition by microplate reader based assay; settings: dose 10-200 µM
[14] = Metal chelating activity assessed as Fe2+ -ferrozoine complex formation at 10 to 200 uM preincubated for 2 mins followed by ferrozine addition and further incubated for 10 mins by microplate reader based assay; settings: dose 10-200 µM, time 12.0 min
[15] = Toxicity in mouse model of Alzheimer's disease assessed as drug tolerability at 0.3 to 3 mg/kg, ip measured after 7 days; type: organism-based; settings: in vivo, 168 h, dose 0.3-3 mg/kg, time 7 day
Mus musculus [16] = assay: as §1, with “0.3” for “0.16”, “8 in presence of melatonin and ferulic acid” for “8”; type: functional, organism-based; settings: time 8.0 day
Mus musculus [17] = assay: Anti-alzheimer activity against amyloid beta (25 to 35) induced working memory deficit mouse assessed as step-through latency time to enter dark compartment at 0.3 to 3 mg/kg, ip administered for 7 days and measured on day 9 days by passive avoidance test; type: functional, organism-based; settings: dose 0.3-3 mg/kg, time 9.0 day
Mus musculus [18] = assay: Anti-alzheimer activity against amyloid beta (25 to 35) induced working memory deficit mouse assessed as step-through latency time to enter dark compartment at 1 mg/kg, ip administered for 7 days and measured on day 9 days in presence of melatonin and ferulic acid by passive avoidance test; type: functional, organism-based; settings: time 7.0 day
Mus musculus [19] = assay: Cognitive enhancing effect in mouse model of Alzheimer's disease at 1 mg/kg; type: functional, organism-based
Mus musculus [20] = assay: Neuroprotection against mouse model of Alzheimer's disease at 1 mg/kg; type: functional, organism-based
Mus musculus [21] = assay: Anti-alzheimer activity against amyloid beta (25 to 35) induced working memory deficit in mouse assessed as increase in spontaneous alternation performance at 1 mg/kg, ip administered for 7 days and measured on day 8 by Y-maze test; type: functional, organism-based; settings: time 7.0 day

T1 sequence (O15379 whole entry): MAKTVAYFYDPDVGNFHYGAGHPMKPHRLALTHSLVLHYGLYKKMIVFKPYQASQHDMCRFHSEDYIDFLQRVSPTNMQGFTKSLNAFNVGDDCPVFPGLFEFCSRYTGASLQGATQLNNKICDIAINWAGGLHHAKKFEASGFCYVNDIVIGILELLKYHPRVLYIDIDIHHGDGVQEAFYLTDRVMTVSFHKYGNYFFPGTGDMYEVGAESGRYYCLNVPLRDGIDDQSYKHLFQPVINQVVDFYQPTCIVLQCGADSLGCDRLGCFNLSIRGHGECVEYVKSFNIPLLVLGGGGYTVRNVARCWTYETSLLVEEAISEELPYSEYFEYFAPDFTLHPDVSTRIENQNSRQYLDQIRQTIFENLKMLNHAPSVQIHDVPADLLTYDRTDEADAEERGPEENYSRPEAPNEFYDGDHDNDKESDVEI

| SMILES | IC50 (Histone deacetylase 3 [1]) [µM] | IC50 [2] [µM] | Ratio IC50 (Homo sapiens) | EC50 [3] [µM] | ORAC antioxidant capacity (Trolox equivalents) [4] | further results |
| --- | --- | --- | --- | --- | --- | --- |
| COc1ccc2[nH]cc(CCNC(=O)/C=C/c3ccc(C(=O)NO)cc3)c2c1 | 0.0197 | 0.0337 | < 1 | 65 | 2 |  |
| COc1ccc2c(c1)c(CCNC(C)=O)cn2CCCCCC(=O)NO | 0.494 | 0.0523 | 9 | 262 | 1.6 |  |
| COc1ccc2[nH]cc(CCNCc3ccc(C(=O)NO)cc3)c2c1 |  |  |  | 66.7 | 3 | inhibition (Histone deacetylase 3 [5]): 26%; inhibition [6]: 43% |
| COc1ccc2[nH]cc(CCNCc3ccc(/C=C/C(=O)NO)cc3)c2c1 | 0.0051 | 0.0214 | < 1 | 17.1 | 2.4 | viability at 48 h, 10 µM [7]: 50% |
| COc1ccc2[nH]cc(CCNC(C)=O)c2c1 [MELATONIN] |  |  |  | > 6000 | 2 | Activity (Mus musculus [10]): inactive; Activity (Mus musculus [11]): inactive |
| O=C(CCCCCCNC(=O)c1cnc(N(c2ccccc2)c2ccccc2)nc1)NO [RICOLINOSTAT] |  |  |  | 255 | 0.5 | Activity [12]: Active; Activity [13]: Active; Activity [14]: Active; Activity ([7]; ht-22, 48 h, 10 µM): Toxic; Activity [15]: Non-Toxic; Activity (Mus musculus [16]): inactive; Activity (Mus musculus [17]): Active; Activity (Mus musculus [18]): inactive; Activity (Mus musculus [19]): Active; Activity (Mus musculus [20]): Active; Activity (Mus musculus [21]): Active |
| COc1ccc2[nH]cc(CCNC(=O)c3ccc(C(=O)NO)cc3)c2c1 |  |  |  | 62 | 2.4 | inhibition (Histone deacetylase 3 [5]): 87%; inhibition [6]: 88% |
| COc1ccc2[nH]cc(CCNC(=O)CCCCC(=O)NO)c2c1 |  |  |  | 292 | 3 | inhibition (Histone deacetylase 3 [5]): 25% |
| COc1ccc2c(c1)c(CCNC(C)=O)cn2Cc1ccc(/C=C/C(=O)NO)cc1 | 0.182 | 0.0688 | 3 | 31.4 | 1.4 |  |
| COc1ccc2[nH]cc(CCNC(=O)c3ccc(/C=C/C(=O)NO)cc3)c2c1 | 0.0036 | 0.0191 | < 1 | 25.2 | 2 | viability at 48 h, 10 µM [7]: 60% |
| COc1cc(/C=C/C(=O)O)ccc1O [FERULATE] |  |  |  | 13.7 | 3.1 |  |

Second part, led by results:

| IC50 (Histone deacetylase 3 [1]) [µM] | IC50 [2] [µM] | Ratio IC50 (Homo sapiens) | EC50 [3] [µM] | SMILES | ORAC antioxidant capacity (Trolox equivalents) [4] | further results |
| --- | --- | --- | --- | --- | --- | --- |
|  |  |  | 15.2 | COc1ccc2[nH]cc(CCNC(=O)CN(Cc3ccc(C(=O)NO)cc3)C(=O)/C=C/c3ccc(O)c(OC)c3)c2c1 | 1.6 | inhibition [6]: 19% |
| 0.108 | 0.0532 | 2 | 8.3 | COc1ccc2[nH]cc(CCNC(=O)CN(Cc3ccc(/C=C/C(=O)NO)cc3)C(=O)/C=C/c3ccc(O)c(OC)c3)c2c1 | 1.2 |  |
| 0.811 | 0.353 | 2 | 8.9 | COc1ccc2[nH]cc(CCN(CCCCCC(=O)NO)C(=O)/C=C/c3ccc(O)c(OC)c3)c2c1 | 2.8 |  |
| 0.121 | 0.057 | 2 | 19.1 | COc1ccc2[nH]cc(CCNC(=O)CN(CCCCCC(=O)NO)C(=O)/C=C/c3ccc(O)c(OC)c3)c2c1 | 3.2 |  |
| 0.163 | 0.0256 | 6 | 8.5 | COc1ccc2[nH]cc(CCN(Cc3ccc(/C=C/C(=O)NO)cc3)C(=O)/C=C/c3ccc(O)c(OC)c3)c2c1 | 1 | Activity (HT-22 [8]): Active; Activity (HT-22 [9]): Active |
